Source: patent US20180000737A1, “INJECTABLE AGGREGATES FOR JOINT AND SOFT TISSUE DISTRESS” (VISGO THERAPEUTICS, INC., priority 2015, published 2018)

Details: sheep, in vivo, 7 days
Description: In another embodiment, the present disclosure provides a composition that achieves both immediate and extended release of an active pharmaceutical ingredient (API) upon administration to a subject, the composition comprising chitosan particles and API, the release occurring through at least one of diffusion of API from the particles and breakdown of the particles to release entrapped API. In additional embodiments, the present disclosure provides a composition that achieves both immediate and extended release of an API which is characterized by any one or more of the following exemplary features: the chitosan particles comprise crosslinked chitosan; the API is an NSAID; the API is diclofenac which optionally may be in whole or in part in crystalline form; the immediate release occurs over a period of 12 hours from the administration, and releases from 5 to 70% of API from the particles; the extended release occurs over a period of 0.5 to 7 days from administration, and releases 5 to 70% of the API from the particles; the particles are taken up by the synovium after administration to the subject. […] Accordingly, the incorporation of API into a crosslinked chitosan particle as disclosed herein may provide an extended release of API into the synovial fluid.

For `O=C(O)Cc1ccccc1Nc1c(Cl)cccc1Cl` [diclofenac, 2-(2-(2,6-dichlorophenylamino)phenyl)acetic acid], which “synovial fluid concentration of diclofenac” value is on record?
Its value is “about 0.05 mg/mL”.
